# Assay results published in patent publication US8476256B2, “Diazonamide analogs” (Joyant Pharmaceuticals, Inc., priority 2008, dated 2013).
# Columns and labels:
# [1] = system: U937 (human leukemic monocyte lymphoma) cell line; test: Cell viability assay (CELL-TITER-GLO), U937; assay type: cell-based; settings: U-937, U937 cells, 48 hour treatment, 1 nM to 1 μM
# Method: (§1) Cell viability assays were run using standard protocols known to those of skill in art. Cells were plated in 96 well plates at the density of 3,000-10,000 cells per well. Twenty four hours later, cells were treated with increasing concentration of test compounds (1 nM to 1 μM). After another 48 hour, cell survival was measured using CELL-TITER-GLO® reagent (Promega) following the protocol provided by the manufacture. The IC50 value was determined as the concentration of test compound that kills 50% of the cell population.
# (§2) Cell viability data generated according to the protocol described herein was generated for representative compounds in the A2058 (human melanoma) and U937 (human leukemic monocyte lymphoma) cell lines. The compound of Example 16 (“Compound J”) was used as a reference compound.
# [2] = system: A2058 (human melanoma) cell line; test: Cell viability assay (CELL-TITER-GLO), A2058; assay type: cell-based; settings: A2058 cells, 48 hour treatment, 1 nM to 1 μM
# Method: as §1, §2
# [3] = system: MiaPaca (pancreatic cancer) cells; test: MiaPaca xenograft model, tumor free animals; assay type: in vivo, Athymic nude mice; settings: 20 mg/kg, tail vein injection, 6 injections (days 9, 11, 14, 16, 18, 21); at 35 days post tumor cell injection; 7 mice/group
# Method: Animals: Athymic nude mice, female, 6-7 weeks old, 20-25 g. Animals bearing with 180-400 mg tumors were selected for experiment. 7 mice/group.
# Administration: Tail vein injection, 200 μL/mouse, to provide the dose indicated.
# Dosing schedule: 6 injections were given on the days indicated post-tumor cell injection.
# Controls: Vehicle, Compound J at 20 mg/kg.
# Test Compound preparation: Compound J and all test compounds were dissolved in 50% Cremophore/EtOH (1:1) at 10 mg/mL as stock solution. Each compound solution was diluted with saline before injection to the concentration indicated.
# Xenograft Model: MiaPaca (pancreatic cancer) cells
# Dosing schedule: 6 injections were given on days 9, 11, 14, 16, 18 and 21 post-tumor cell injection.
# Test Compounds: Example 23, Example 24, and Example 53, at 20 mg/kg.
# For animals treated with the compound of Example 24 at 20 mg/kg, 7 of 7 animals were tumor free at 35 days post tumor cell injection.
Structure (SMILES),IC50 [1] [µM],IC50 [2] [µM],Tumor-free animals out of 7 [3]
CCC(C)(O)C(=O)NC1Cc2ccc3c(c2)[C@]24C5=C(N=C(O5)[C@H](C(C)C)NC1=O)c1ncc(o1)-c1c[nH]c5cccc(c15)-c1cccc2c1NC4O3 (stereo partly shown) [Example 23],0.156,0.124,0/7 (35)
CC(C)[C@@H]1NC(=O)C(NC(=O)[C@H]2CCOC2)Cc2ccc3c(c2)[C@]24C5=C(N=C1O5)c1ncc(o1)-c1c[nH]c5cccc(c15)-c1cccc2c1NC4O3 (stereo partly shown) [Example 53],0.078,0.209,1/7 (35)
CC(=O)O[C@H](C(=O)N[C@H]1Cc2ccc3c(c2)C24C5=C(N=C(O5)[C@H](C(C)C)NC1=O)c1ncc(o1)-c1c[nH]c5cccc(c15)-c1cccc2c1N[C@H]4O3)C(C)C (stereo partly shown) [Example 31],0.062,0.194,–
COC(=O)O[C@H](C(=O)N[C@H]1Cc2ccc3c(c2)C24C5=C(N=C(O5)[C@H](C(C)C)NC1=O)c1ncc(o1)-c1c[nH]c5cccc(c15)-c1cccc2c1N[C@H]4O3)C(C)C (stereo partly shown) [Example 32],0.157,0.211,–
CC(C)C1NC(=O)[C@@H](NC(=O)[C@@H]2CCCN2)Cc2ccc3c(c2)C24C5=C(N=C1O5)c1ncc(o1)-c1c[nH]c5cccc(c15)-c1cccc2c1N[C@H]4O3 (stereo partly shown) [Example 36],> 1,> 1,–
CC(C)[C@H](O)C(=O)N[C@H]1Cc2ccc3c(c2)C24C5=C(N=C(O5)[C@H](C(C)C)NC1=O)c1nc(Cl)c(o1)-c1c[nH]c5cccc(c15)-c1cccc2c1N[C@H]4O3 (stereo partly shown) [Example 86],0.084,0.081,–
CC(C)=CCC/C(C)=C/C(=O)NC1Cc2ccc3c(c2)[C@]24C5=C(N=C(O5)[C@H](C(C)C)NC1=O)c1ncc(o1)-c1c[nH]c5cccc(c15)-c1cccc2c1NC4O3 (stereo partly shown) [Example 45],0.78,0.887,–
CCCC(Br)C(=O)NC1Cc2ccc3c(c2)[C@]24C5=C(N=C(O5)[C@H](C(C)C)NC1=O)c1ncc(o1)-c1c[nH]c5cccc(c15)-c1cccc2c1NC4O3 (stereo partly shown) [Example 47],0.323,0.546,–
CC(C)[C@@H]1NC(=O)C(NC(=O)C2CC2)Cc2ccc3c(c2)[C@]24C5=C(N=C1O5)c1ncc(o1)-c1c[nH]c5cccc(c15)-c1cccc2c1NC4O3 (stereo partly shown) [Example 48],0.22,0.457,–
"CC(C)[C@H](O)C(=O)N[C@H]1Cc2ccc3c(c2)[C@]24C5=C(N=C(O5)[C@H](C(C)C)NC1=O)c1ncc(o1)-c1c[nH]c5cccc(c15)-c1cccc2c1NC4O3 (stereo partly shown) [Example 16, reference compound]",0.034,0.043,0/7 (35)
CCC(O)(CC)C(=O)N[C@H]1Cc2ccc3c(c2)C24C5=C(N=C(O5)[C@H](C(C)C)NC1=O)c1ncc(o1)-c1c[nH]c5c(O)ccc(c15)-c1cccc2c1N[C@H]4O3 (stereo partly shown) [Example 80],0.182,0.183,–
CC(C)[C@@H]1NC(=O)C(NC(=O)C2(O)CCCC2)Cc2ccc3c(c2)[C@]24C5=C(N=C1O5)c1ncc(o1)-c1c[nH]c5cccc(c15)-c1cccc2c1NC4O3 (stereo partly shown) [Example 26],0.154,0.214,–
CCCC(C)(C)C(=O)NC1Cc2ccc3c(c2)[C@]24C5=C(N=C(O5)[C@H](C(C)C)NC1=O)c1ncc(o1)-c1c[nH]c5cccc(c15)-c1cccc2c1NC4O3 (stereo partly shown) [Example 41],0.22,0.397,–
CC(C)[C@@H]1NC(=O)C(NC(=O)/C=C/C(=O)O)Cc2ccc3c(c2)[C@]24C5=C(N=C1O5)c1ncc(o1)-c1c[nH]c5cccc(c15)-c1cccc2c1NC4O3 (stereo partly shown) [Example 56],0.756,> 1,–
CC(C)[C@@H]1NC(=O)C(NC(=O)[C@H](C)O)Cc2ccc3c(c2)[C@]24C5=C(N=C1O5)c1ncc(o1)-c1c[nH]c5cccc(c15)-c1cccc2c1NC4O3 (stereo partly shown) [Example 18],0.208,0.394,–
CC(=O)N[C@H](C(=O)N[C@H]1Cc2ccc3c(c2)C24C5=C(N=C(O5)[C@H](C(C)C)NC1=O)c1ncc(o1)-c1c[nH]c5cccc(c15)-c1cccc2c1N[C@H]4O3)C(C)C (stereo partly shown) [Example 35],0.183,0.232,–
CC(C)[C@@H]1NC(=O)C(NC(=O)C2CCCC2)Cc2ccc3c(c2)[C@]24C5=C(N=C1O5)c1ncc(o1)-c1c[nH]c5cccc(c15)-c1cccc2c1NC4O3 (stereo partly shown) [Example 50],0.331,0.339,–
CC(C)[C@H](N)C(=O)N[C@H]1Cc2ccc3c(c2)C24C5=C(N=C(O5)[C@H](C(C)C)NC1=O)c1ncc(o1)-c1c[nH]c5cccc(c15)-c1cccc2c1N[C@H]4O3 (stereo partly shown) [Example 33],0.572,1.44,–

Structure (SMILES),IC50 [1] [µM],IC50 [2] [µM],Tumor-free animals out of 7 [3]
CC(C)C[C@H](O)C(=O)NC1Cc2ccc3c(c2)[C@]24C5=C(N=C(O5)[C@H](C(C)C)NC1=O)c1ncc(o1)-c1c[nH]c5cccc(c15)-c1cccc2c1NC4O3 (stereo partly shown) [Example 20],0.142,0.158,–
CO[C@@](C(=O)NC1Cc2ccc3c(c2)[C@]24C5=C(N=C(O5)[C@H](C(C)C)NC1=O)c1ncc(o1)-c1c[nH]c5cccc(c15)-c1cccc2c1NC4O3)(c1ccccc1)C(F)(F)F (stereo partly shown) [Example 57],0.618,0.58,–
CC(C)[C@@H]1NC(=O)C(NS(C)(=O)=O)Cc2ccc3c(c2)C24C5=C(N=C1O5)c1ncc(o1)-c1c[nH]c5cccc(c15)-c1cccc2c1N[C@H]4O3 (stereo partly shown) [Example 73],0.067,0.14,–
CC(C)CC(=O)N[C@H]1Cc2ccc3c(c2)[C@]24C5=C(N=C(O5)[C@H](C(C)C)NC1=O)c1ncc(o1)-c1c[nH]c5cccc(c15)-c1cccc2c1NC4O3 (stereo partly shown) [Example 38],0.216,0.417,–
CC/C=C(\C)C(=O)NC1Cc2ccc3c(c2)[C@]24C5=C(N=C(O5)[C@H](C(C)C)NC1=O)c1ncc(o1)-c1c[nH]c5cccc(c15)-c1cccc2c1NC4O3 (stereo partly shown) [Example 44],0.399,0.587,–
CC(C)[C@@H]1NC(=O)C(NC(=O)c2cccs2)Cc2ccc3c(c2)[C@]24C5=C(N=C1O5)c1ncc(o1)-c1c[nH]c5cccc(c15)-c1cccc2c1NC4O3 (stereo partly shown) [Example 63],0.206,0.488,–
CC/C=C/C(=O)NC1Cc2ccc3c(c2)[C@]24C5=C(N=C(O5)[C@H](C(C)C)NC1=O)c1ncc(o1)-c1c[nH]c5cccc(c15)-c1cccc2c1NC4O3 (stereo partly shown) [Example 43],0.186,0.356,–
CC(C)=CCC/C(C)=C/CNC1Cc2ccc3c(c2)C24C5=C(N=C(O5)[C@H](C(C)C)NC1=O)c1ncc(o1)-c1c[nH]c5cccc(c15)-c1cccc2c1N[C@H]4O3 (stereo partly shown) [Example 67],> 1,> 1,–
CCC(O)(CC)C(=O)NC1Cc2ccc3c(c2)C24C5=C(N=C(O5)[C@H](C(C)C)NC1=O)c1nc(Cl)c(o1)-c1c(Cl)[nH]c5cccc(c15)-c1cccc2c1N[C@H]4O3 (stereo partly shown) [Example 90],0.302,0.375,–
CC(C)[C@H](O)C(=O)NC1Cc2ccc3c(c2)C24C5=C(N=C(O5)[C@H](C(C)C)NC1=O)c1ncc(o1)-c1c[nH]c5c(O)ccc(c15)-c1cccc2c1N[C@H]4O3 (stereo partly shown) [Example 77],0.052,0.07,–
CCC(O)(CC)C(=O)N[C@H]1Cc2ccc3c(c2)C24C5=C(N=C(O5)[C@H](C(C)C)NC1=O)c1ncc(o1)-c1cn(C)c5c(OC)ccc(c15)-c1cccc2c1N[C@H]4O3 (stereo partly shown) [Example 82],0.021,0.029,–
CCC(O)(CC)C(=O)NC1Cc2ccc3c(c2)C24C5=C(N=C(O5)[C@H](C(C)C)NC1=O)c1nc(Cl)c(o1)-c1c(Cl)[nH]c5cccc(c15)-c1cc(Cl)cc2c1N[C@H]4O3 (stereo partly shown) [Example 91],> 1,> 1,–
COc1ccc2c3c(cn(C)c13)-c1cnc(o1)-c1nc3oc1C14c5cc(ccc5O[C@@H]1Nc1c-2cccc14)CC(NC(=O)[C@@H](O)C(C)C)C(=O)N[C@H]3C(C)C (stereo partly shown) [Example 79],0.027,0.022,–
CC(C)OC(=O)NC1Cc2ccc3c(c2)C24C5=C(N=C(O5)[C@H](C(C)C)NC1=O)c1ncc(o1)-c1c[nH]c5cccc(c15)-c1cccc2c1N[C@H]4O3 (stereo partly shown) [Example 68],0.214,0.451,–
CC(C)[C@@H]1NC(=O)C(NS(=O)(=O)c2ccccc2)Cc2ccc3c(c2)[C@]24C5=C(N=C1O5)c1ncc(o1)-c1c[nH]c5cccc(c15)-c1cccc2c1NC4O3 (stereo partly shown) [Example 74],> 1,0.429,–
CO[C@H](C(=O)N[C@H]1Cc2ccc3c(c2)C24C5=C(N=C(O5)[C@H](C(C)C)NC1=O)c1ncc(o1)-c1c[nH]c5cccc(c15)-c1cccc2c1N[C@H]4O3)C(C)C (stereo partly shown) [Example 30],0.224,0.197,–
CC1CC1C(=O)NC1Cc2ccc3c(c2)[C@]24C5=C(N=C(O5)[C@H](C(C)C)NC1=O)c1ncc(o1)-c1c[nH]c5cccc(c15)-c1cccc2c1NC4O3 (stereo partly shown) [Example 49],0.245,0.443,–
